Data on 1 molecule can be found in article PMC8401265, “Evolutionary Diversification of Host-Targeted Bartonella Effectors Proteins Derived from a Conserved FicTA Toxin-Antitoxin Module” (Microorganisms, 2021).

The target of the assay is T1, Btr_BepC FIC (Bartonella tribocorum, UniProt A9IWP7).
T1 construct: gene bepC
Nature of the assay: X-ray crystallography. It is filed as binding. The settings on record: active site; pH 6.5 crystals; lysine K150 contacts alpha-phosphate.

T1 sequence (A9IWP7 entry or part of it): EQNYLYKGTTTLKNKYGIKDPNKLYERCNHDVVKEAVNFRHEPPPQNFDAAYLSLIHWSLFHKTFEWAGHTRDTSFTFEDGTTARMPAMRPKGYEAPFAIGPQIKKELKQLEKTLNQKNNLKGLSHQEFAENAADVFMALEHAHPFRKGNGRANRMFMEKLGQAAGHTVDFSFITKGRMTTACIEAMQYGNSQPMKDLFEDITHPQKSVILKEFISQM

For `Nc1ncnc2c1ncn2[C@@H]1O[C@H](COP(=O)(O)OP(=O)(O)NP(=O)(O)O)[C@@H](O)[C@H]1O` [AMPPNP], the X-ray crystallography result is given as “the complex of Btr_BepC with AMPPNP (Figure 9A) demonstrates competent tri-phosphate nucleotide binding”.
